In paper PMC7956625, “Optimization and Anti-Cancer Properties of Fluoromethylketones as Covalent Inhibitors for Ubiquitin C-Terminal Hydrolase L1” (Molecules, 2021):
Numbering of substitutions follows the chain as printed. Entries after “also recorded” stand apart in the source; their conditions may differ. Where a SMILES comes first, the peptide text is derived from it. The star is where a group is joined. Cbz = O=C(OCc1ccccc1)*; CH2F = FC*

Legend:
KMS11 cells = test: KMS cell proliferation assay (IncuCyte); assay type: cell-based; settings: 100 µM; 24, 48, 72 and 96 h
Experimental: (§1) The proliferation of KMS11 and KMS12 cells was monitored using an IncuCyte devise (Sartorius, Goettingen, Germany; www.essenbioscience.com, accessed on 31 August 2020). Cells (3 × 10^4 per well; 200 µL) were seeded in triplicate in 96 well plates the night prior to the addition of compounds. The IncuCyte was set to collect images from five fields per well at 4-h intervals by using the nuclear dye Nuclight Red (Sartorius). At each timepoint, the number of cells per well was deter- mined by taking the mean of the five locations in each well. The relative proliferation at each timepoint was normalized, with 100% set as the number of cells observed for incubated with DMSO (0.1%) controls at 72 h.

KMS12 cells = test: KMS cell proliferation assay (IncuCyte); assay type: cell-based; settings: 100 µM; 24 to 96 h; cells do not express UCHL1
Experimental: as §1

UCHL5 = target: T1, UCHL5 (Homo sapiens, UniProt Q9Y5K5); design: method as in PMID 22617491; settings: concentrations up to 400 µM; cited from earlier work
T1 sequence (Q9Y5K5 1-245 limits assumed): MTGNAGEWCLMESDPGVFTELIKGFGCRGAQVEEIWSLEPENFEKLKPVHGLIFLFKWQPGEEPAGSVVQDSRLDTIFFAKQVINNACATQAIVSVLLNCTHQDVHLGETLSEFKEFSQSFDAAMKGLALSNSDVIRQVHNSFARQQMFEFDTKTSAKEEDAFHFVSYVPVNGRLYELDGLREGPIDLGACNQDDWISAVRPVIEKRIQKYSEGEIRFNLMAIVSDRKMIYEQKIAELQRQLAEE

UCHL1 [1] = target: T2, UCHL1 (Homo sapiens, UniProt P09936); test: Fluorescence-based Ub-Rho deubiquitinase activity assay; assay type: biochemical; design: made in house; settings: IC50, after approximately 112 min preincubation
T2 sequence (P09936 1-223): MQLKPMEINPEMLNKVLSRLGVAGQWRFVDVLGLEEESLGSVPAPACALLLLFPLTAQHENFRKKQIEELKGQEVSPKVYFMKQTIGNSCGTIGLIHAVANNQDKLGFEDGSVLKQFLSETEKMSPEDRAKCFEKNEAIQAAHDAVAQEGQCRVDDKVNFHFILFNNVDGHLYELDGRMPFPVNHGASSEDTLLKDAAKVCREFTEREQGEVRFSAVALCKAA

UCHL1 [2] = target: T2, UCHL1; test: SW1271 cell activity-based probe target engagement assay
Experimental: UCHL1 is a key promoter of cell invasion and metastasis in small cell lung cancer but not necessarily required for cell viability or proliferation. Thus, we chose to assess the efficacy of targeting UCHL1 using the SW1271 small cell lung cancer cell line. […] The Ub-ABP assay was used to confirm on target engagement of UCHL1 within these cells.
[…] Cell pellets were thawed on ice before resuspending in 200 µL lysis buffer (50 mM Tris pH 7.6, 150 mM NaCl, 5 mM MgCl2, 0.5 mM EDTA, 5 mM DTT, 2 mM ATP, 0.5% NP-40, 10% v/v glycerol) and incubating on ice for 30 min with vigorous vortexing every 10 min. Cell lysate was clarified by centrifugation (17,000× g for 10 min) and the supernatant was collected, and the concentration was determined by Bradford (performed according to manufacturer’s protocol). Cells were normalized to 2 mg mL^−1. To each reaction mixture was added 36 µL of lysate and 2 µL of HA-Ub-VME or lysis buffer. This was incubated for 30 min at room temperature before quenching with 15 µL of 4X Laemmli buffer and heating to 95 °C for 5 min. Samples were subjected to SDS-PAGE and immunoblot.

UCHL1 C90A = target: T3, UCHL1 C90A (Homo sapiens, UniProt P09936, C90A); test: Click reaction and in-gel fluorescence, recombinant protein; assay type: binding; settings: 10 µM inhibitor, 3 h, Cy5-Azide click
T3 construct: His (N); made in house
T3 sequence (P09936 1-223 C90A): T2 sequence (P09936 1-223) with C90A
Experimental: (§2) A common shortcoming to covalent inhibitors is that the reactive electrophilic groups may partake in non-specific labeling of off-target cysteines. To investigate if alternative cysteines are affected on UCHL1 we used analog 34 to confirm that the fluoromethylketone derivatives only conjugate Cys90. […] Additionally, samples were analyzed by mass spectrometry to increase sensitivity for detection of any non-Cys90 adducts. […]
(§3) Solutions containing 1 mg/mL recombinant UCHL1^WT or UCHL1^C90A (from pET15b) (49 µL) was incubated with 10 µM inhibitor for 3 h at room temperature in PBS starting block buffer (Thermo Scientific # 37538). After 3 h, 6 µL of a freshly prepared cocktail was added to each sample, consisting of: 3 µL 1.7 mM THPTA in 1:4 DMSO/tBuOH (100 µM final concentration), 1 µL 50 mM CuSO4 (1 mM final concentration), 1 µL TCEP HCl (25 µM final concentration), and 1 uL Cy5-Azide (#AZ118, Click Chemistry Tools, Scottsdale, AZ, USA; 25 µM final concentration). The samples were allowed to react for 2 h at room temperature protected from light before precipitating the sample by adding 600 µL MeOH, 150 µL chloroform, and 400 µL water, vortexing between each addition. The samples were pelleted by centrifuging at […] for 5 min. […] The samples were then analyzed by SDS-PAGE and imaged on an Odyssey system (LI-COR, Lincoln, NE, USA) and subsequently Coomassie stained.

UCHL1^WT = target: T4, UCHL1^WT (Homo sapiens, UniProt P09936); test: as above; assay type: binding; settings: 10 µM inhibitor, 3 h, Cy5-Azide click
T4 construct: His (N); made in house
T4 sequence (P09936 1-223): T2 sequence (P09936 1-223)
Experimental: as §2, §3

Row | SMILES | proliferation of KMS11 cells compared to DMSO (KMS11 cells) | proliferation of KMS12 cells compared to DMSO (KMS12 cells) | activity toward UCHL5 (UCHL5) | IC50 (UCHL1 [1]) [µM] | selectivity over other DUBs in SW1271 cells (HA blot) (UCHL1 [2]; HA immunoblot) | HA-Ub-VME complex formation with UCHL1 in SW1271 cells (UCHL1 [2]; dose-response, UCHL1 immunoblot) | covalent adduct with UCHL1 C90A (in-gel fluorescence) (UCHL1 C90A) | covalent adduct with WT-UCHL1 (in-gel fluorescence) (UCHL1^WT)
1 | COC(=O)CC[C@H](NC(=O)[C@H](C)NC(=O)[C@@H](NC(=O)OCc1ccccc1)C(C)C)C(=O)CF [Cpd 1, benzyloxycarbonyl-Val-Ala-Glu(γ-methoxy)-fluoromethylketone] (Cbz-Val-Ala-Glu(OMe)-CH2F) | reduced proliferation; also recorded: anti-proliferative properties | showed reduced growth at the 24-h timepoint but regained proliferative ability at the 96-h timepoint | not possess any activity | 29 |  |  |  | 
2 | C#Cc1ccc(COC(=O)N[C@H](C(=O)N[C@@H](C)C(=O)N[C@@H](CCC(=O)OC)C(=O)CF)C(C)C)cc1 [Cpd 34] |  |  |  |  | demonstrated selectivity over other DUBs | inhibited HA-Ub-VME complex formation with UCHL1 in a dose-dependent manner | does not form an adduct; also recorded: no fluorescent bands were observed | forms a covalent adduct with WT-UCHL1; also recorded: formed a covalent adduct
